Measured values from patent US9206167B2, “Piperazine-substituted benzothiophenes for treatment of mental disorders” (Otsuka Pharmaceutical Co., Ltd., priority 2005, dated 2015).

Experiments:
[1] = biological target: Serotonin 5-HT2A receptor (Rattus norvegicus (Rat), UniProt P14842); assay: Serotonin 5-HT2A receptor binding assay ([3H]-Ketanserin, rat frontal cortex membrane); conditions: Ki from IC50 by Cheng-Prussoff formula
Protocol: 2) Serotonin 5-HT2A Receptor Binding Assay
The assay was performed according to the method by Leysen J E et al. (Leysen J E, Niemegeers C J E, Van Nueten J M and Laduron P M. [3H] Ketanserin (R 41 468), a selective 3H-ligand for serotonin 2 receptor binding sites. Mol. Pharmacol., 1982, 21: 301-314).
Wistar male rats were decapitated, the brain was retrieved immediately and frontal cortex was taken out. It was homogenized in 0.25 M sucrose of a volume 10 times of the weight of the tissue using a Teflon glass homogenizer, and centrifuged at 4° C., 1,000×g for 10 minutes. The obtained supernatant was transferred to another centrifuge tube and suspended in 0.25 M sucrose of a volume 5 times of the weight of the tissue and the precipitate was centrifuged in the above-described condition. The obtained supernatant was combined with the supernatant obtained above and adjusted to a volume 40 times of the weight of the tissue with 50 mM Tris-hydrochloric acid buffer (pH 7.4), and centrifuged at 4° C., 35,000×g for 10 minutes. The obtained precipitate was suspended again in the above-described buffer of a volume 40 times of the weight of the tissue and centrifuged in the above-described condition. The obtained precipitate was suspended in the above-described buffer of a volume 20 times of the weight of the tissue and preserved by freezing at −85° C. till it was used for binding assay as a membrane specimen.
The binding assay was performed using 40 μl of the membrane specimen, 20 μl of [^3H]-Ketanserin (final concentration 1 to 3 nM), 20 μl of a test drug and 50 mM Tris-hydrochloric acid buffer (pH 7.4) so that the total amount was 200 μl (final dimethylsulfoxide concentration 1%). The reaction was performed at 37° C. for 20 minutes and terminated by conducting suction filtration with a cell harvester on a glass fiber filter plate.
The filter plate made of glass fiber was washed with 50 mM Tris-hydrochloric acid buffer (pH 7.4), and after dried, a microplate liquid scintillation cocktail was added and the radioactivity was measured with a microplate scintillation counter. Radioactivity in the presence of 10 μM spiperone was assumed as nonspecific binding.
(§1) IC50 value was calculated from concentration-dependent reaction using a non-linear analysis program. Ki value was calculated from IC50 value using Cheng-Prussoff formula.

Serotonin (5-HT) uptake = Serotonin (5-HT) uptake (Rattus norvegicus (Rat), UniProt P31652); assay: Serotonin (5-HT) uptake inhibitory activity by rat brain synaptosome; type: biochemical; conditions: test compound 300 nM, rat frontal cortex synaptosome; read-out: Serotonin uptake inhibitory ratio (%) (300 nM)
Protocol: Measurement of Serotonin (5-HT) Uptake Inhibitory Activity of a Test Compound by Rat Brain Synaptosome
Wistar male rats were decapitated, the brain was retrieved and frontal cortex was dissected out, and it was homogenized in 0.32 M sucrose solution of a weight 20 times of the weight of the tissue using a Potter type homogenizer. The homogenate was centrifuged at 4° C., 1,000×g for 10 minutes, the obtained supernatant was further centrifuged at 4° C., 20,000×g for 20 minutes, and the pellet was suspended in an incubation buffer (20 mM Hepes buffer (pH 7.4) containing 10 mM glucose, 145 mM sodium chloride, 4.5 mM potassium Chloride, 1.2 mM magnesium chloride, 1.5 mM calcium chloride), which was used as crude synaptosome fraction.
5-HT uptake reaction was performed in a volume of 200 μl using a 96-well round bottom plate and pargyline (final concentration 10 μM) and sodium ascorbate (final concentration 0.2 mg/ml) were contained in the incubation buffer upon reaction and used.
Incubation buffer (total counting), non-labeled 5-HT (final concentration 10 μM, non-specific counting) and the diluted test compound (final concentration 300 nM) were added to each well. One-tenth quantity of the final volume of the synaptosome fraction was added and after preincubated at 37° C. for 10 minutes, tritium labeled 5-HT solution (final concentration 8 nM) was added and uptake reaction was started at 37° C. The uptake time was 10 minutes and the reaction was terminated by vacuum filtration through a 96-well fiber glass filter paper plate, and after the filter paper was washed with cold normal saline, it was dried enough and Microscint0 (Perkin-Elmer) was added to the filter and remaining radioactivity on the filter was measured.

Dopamine D2 receptor = Dopamine D2 receptor (Rattus norvegicus (Rat), UniProt P61169); assay: Dopamine D2 receptor binding assay ([3H]-raclopride, rat corpus striatum membrane); conditions: Ki from IC50 by Cheng-Prussoff formula
Protocol: Pharmacological Test 1 1) Dopamine D2 Receptor Binding Assay
Wistar male rats were decapitated, the brain was retrieved immediately and corpus striatum was taken out. It was homogenized in 50 mM tris(hydroxymethyl)aminomethane (Tris)-hydrochloric acid buffer (pH 7.4) of a volume 50 times of the weight of the tissue using a homogenizer with a high-speed rotating blade, and centrifuged at 4° C., 48,000×g for 10 minutes. The obtained precipitate was suspended again in the above-described buffer of a volume 50 times of the weight of the tissue and after incubated at 37° C. for 10 minutes, centrifuged in the above-described condition. The obtained precipitate was suspended in 50 mM (Tris)-hydrochloric acid buffer (containing 120 mM NaCl, 5 mM KCl, 2 mM CaCl2, 1 mM MgCl2, pH 7.4) of a volume 25 times of the weight of the tissue and preserved by freezing at −85° C. till it was used for binding assay as a membrane specimen.
The binding assay was performed using 40 μl of the membrane specimen, 20 μl of [^3H]-raclopride (final concentration 1 to 2 nM), 20 μl of a test drug and 50 mM Tris-hydrochloric acid buffer (containing 120 mM NaCl, 5 mM KCl, 2 mM CaCl2, 1 mM MgCl2, pH 7.4) so that the total amount was 200 μl (final dimethylsulfoxide concentration 1%). The reaction was performed at room temperature for 1 hour and terminated by conducting suction filtration with a cell harvester on a glass fiber filter plate. The filter plate made of glass fiber was washed with 50 mM Tris-hydrochloric acid buffer (pH 7.4), and after dried, a microplate liquid scintillation cocktail was added and the radioactivity was measured with a microplate scintillation counter. Radioactivity in the presence of 10 μM (+)-butaclamol hydrochloride was assumed as nonspecific binding.
as §1

[2] = biological target: Human recombinant dopamine D2 receptor (Homo sapiens (Human), UniProt P14416); conditions: forskolin-stimulated D2 expressing CHO/DHFR(-) cells, control drug
Protocol: Partial agonistic activity on dopamine D2 receptor was evaluated by quantitatively determining cyclic AMP production inhibitory effect of a test compound in dopamine D2 receptor expression cells in which adenosine 3′,5′-cyclic monophosphate (cyclic AMP) production was induced by forskolin stimulation.
Human recombinant dopamine D2 receptor expressing Chinese hamster ovary/DHFR(−) cells were cultured in a culture medium (Iscove's Modified Dulbecco's Medium (IMDM culture medium), 10% fetal bovine serum, 50 I.U./ml penicillin, 50 μg/ml streptomycin, 200 μg/ml geneticin, 0.1 mM sodium hypoxanthine, 16 μM thymidine) at 37° C. and 5% carbon dioxide condition. Cells were seeded at 10^4 cells/well on a 96-well microtiter plate coated with poly-L-lysine and grown under the same condition for 2 days. Each well was washed with 100 μl of a culture medium (IMDM culture medium, 0.1 mM sodium hypoxanthine, 16 μM thymidine).

Serotonin (5-HT) uptake, sequence (P31652 whole entry): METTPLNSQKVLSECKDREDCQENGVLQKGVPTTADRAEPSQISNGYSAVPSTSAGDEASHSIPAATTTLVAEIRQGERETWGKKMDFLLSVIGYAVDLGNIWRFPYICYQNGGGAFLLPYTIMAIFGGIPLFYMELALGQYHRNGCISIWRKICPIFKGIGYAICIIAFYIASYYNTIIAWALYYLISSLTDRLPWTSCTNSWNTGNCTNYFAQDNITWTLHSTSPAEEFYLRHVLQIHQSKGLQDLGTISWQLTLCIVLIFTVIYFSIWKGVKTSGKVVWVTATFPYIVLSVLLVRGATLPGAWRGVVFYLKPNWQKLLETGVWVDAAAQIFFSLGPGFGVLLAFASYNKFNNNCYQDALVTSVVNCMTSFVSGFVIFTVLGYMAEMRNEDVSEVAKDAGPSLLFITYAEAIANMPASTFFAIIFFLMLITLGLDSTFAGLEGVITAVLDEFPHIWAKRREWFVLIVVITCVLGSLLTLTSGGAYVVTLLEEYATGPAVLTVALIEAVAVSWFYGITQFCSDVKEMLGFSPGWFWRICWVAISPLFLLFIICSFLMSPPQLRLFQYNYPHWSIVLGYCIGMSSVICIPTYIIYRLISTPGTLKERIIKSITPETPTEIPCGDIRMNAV
Serotonin 5-HT2A receptor, sequence (P14842 whole entry): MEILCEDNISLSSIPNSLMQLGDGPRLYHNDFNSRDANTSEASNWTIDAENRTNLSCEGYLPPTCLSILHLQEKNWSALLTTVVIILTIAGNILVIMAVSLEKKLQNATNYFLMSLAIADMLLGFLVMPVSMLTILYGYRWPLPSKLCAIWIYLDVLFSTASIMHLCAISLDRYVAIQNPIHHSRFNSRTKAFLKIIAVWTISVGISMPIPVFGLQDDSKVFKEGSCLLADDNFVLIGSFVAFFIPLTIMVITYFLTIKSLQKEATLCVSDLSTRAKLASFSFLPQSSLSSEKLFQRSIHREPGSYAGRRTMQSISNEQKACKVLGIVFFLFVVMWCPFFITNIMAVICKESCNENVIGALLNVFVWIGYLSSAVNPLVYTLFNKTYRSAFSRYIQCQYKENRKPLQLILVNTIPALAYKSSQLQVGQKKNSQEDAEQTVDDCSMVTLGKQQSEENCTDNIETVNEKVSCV
Dopamine D2 receptor, sequence (P61169 whole entry): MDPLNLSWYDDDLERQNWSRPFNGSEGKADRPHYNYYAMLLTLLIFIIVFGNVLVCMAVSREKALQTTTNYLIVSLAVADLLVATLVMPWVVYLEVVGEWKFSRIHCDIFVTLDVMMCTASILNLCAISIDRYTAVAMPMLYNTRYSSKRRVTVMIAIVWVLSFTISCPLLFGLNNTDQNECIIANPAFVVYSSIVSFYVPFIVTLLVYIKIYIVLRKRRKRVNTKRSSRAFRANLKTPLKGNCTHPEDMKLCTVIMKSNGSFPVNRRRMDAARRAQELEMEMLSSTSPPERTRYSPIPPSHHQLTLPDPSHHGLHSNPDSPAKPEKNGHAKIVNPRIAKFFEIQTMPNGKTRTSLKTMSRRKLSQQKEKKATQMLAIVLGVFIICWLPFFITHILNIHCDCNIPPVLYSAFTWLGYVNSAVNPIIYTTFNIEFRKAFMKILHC
Human recombinant dopamine D2 receptor, sequence (P14416 whole entry): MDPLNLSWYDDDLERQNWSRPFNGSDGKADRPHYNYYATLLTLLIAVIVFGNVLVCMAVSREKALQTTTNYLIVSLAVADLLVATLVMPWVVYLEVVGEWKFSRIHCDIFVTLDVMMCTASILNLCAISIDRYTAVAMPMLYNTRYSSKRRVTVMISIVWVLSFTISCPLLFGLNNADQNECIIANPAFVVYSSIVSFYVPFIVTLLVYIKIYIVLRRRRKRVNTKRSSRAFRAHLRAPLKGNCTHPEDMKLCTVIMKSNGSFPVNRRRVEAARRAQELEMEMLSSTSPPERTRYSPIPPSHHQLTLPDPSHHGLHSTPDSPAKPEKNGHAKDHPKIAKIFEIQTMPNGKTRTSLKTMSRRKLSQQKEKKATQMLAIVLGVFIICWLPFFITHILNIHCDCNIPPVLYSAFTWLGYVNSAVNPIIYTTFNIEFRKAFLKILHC

| Compound | Ki [1] [nM] | inhibition at 0.3 µM (Serotonin (5-HT) uptake) [%] | Ki (Dopamine D2 receptor) [nM] | quantity of cyclic AMP as the maximum activity (well without test compound = 100%) [2] |
| --- | --- | --- | --- | --- |
| Cc1cc2ccc(OCCCN3CCN(c4cccc5sccc45)CC3)cc2[nH]c1=O [Example 5, 7-[3-(4-benzo[b]thiophen-4-yl-piperazin-1-yl)propoxy]-3-methyl-1H-quinolin-2-one] | 6.4 | 89.1 | 0.6 | – |
| O=C1c2ccccc2CCN1CCCCCN1CCN(c2cccc3sccc23)CC1 [Example 24, 2-[5-(4-benzo[b]thiophen-4-yl-piperazin-1-yl)pentyl]-3,4-dihydro-2H-isoquinolin-1-one] | 2.3 | 97.5 | 5 | – |
| O=C1CCc2cc(OCCCCN3CCN(c4cccc5sccc45)CC3)ccc2N1 [Example 20, 6-[4-(4-benzo[b]thiophen-4-yl-piperazin-1-yl)butoxy]-3,4-dihydro-1H-quinolin-2-one] | 3.3 | 92.8 | 1.5 | – |
| O=c1ccc2ccc(OCCCCN3CCN(c4cccc5sccc45)CC3)cc2[nH]1 [Example 1, 7-[4-(4-benzo[b]thiophen-4-yl-piperazin-1-yl)butoxy]-1H-quinolin-2-one] | 2.3 | 92.4 | 0.2 | – |
| CC1CC(=O)Nc2cc(OCCCCN3CCN(c4cccc5sccc45)CC3)ccc21 (stereo not shown) [Example 16, 7-[4-(4-benzo[b]thiophen-4-yl-piperazin-1-yl)butoxy]-4-methyl-3,4-dihydro-1H-quinolin-2-one] | 7 | 86.7 | 0.7 | – |

Results, then the compound that gave them:

| Ki [1] [nM] | inhibition at 0.3 µM (Serotonin (5-HT) uptake) [%] | Ki (Dopamine D2 receptor) [nM] | quantity of cyclic AMP as the maximum activity (well without test compound = 100%) [2] | Compound |
| --- | --- | --- | --- | --- |
| 4.1 | 94 | 4.9 | – | CCN1CCc2cc(OCCCN3CCN(c4cccc5sccc45)CC3)ccc2C1=O [Example 27, 6-[3-(4-benzo[b]thiophen-4-yl-piperazin-1-yl)propoxy]-2-ethyl-3,4-dihydro-2H-isoquinolin-1-one] |
| 4.4 | 92 | 3.5 | – | CN1CCc2cc(OCCCN3CCN(c4cccc5sccc45)CC3)ccc2C1=O [Example 26, 6-[3-(4-benzo[b]thiophen-4-yl-piperazin-1-yl)propoxy]-2-methyl-3,4-dihydro-2H-isoquinolin-1-one] |
| – | – | – | about 10% | NCCc1ccc(O)c(O)c1 [dopamine] |
| 4 | 91 | 0.5 | – | O=c1ccc2ccc(OCCCN3CCN(c4cccc5sccc45)CC3)cc2[nH]1 [Example 7, 7-[3-(4-benzo[b]thiophen-4-yl-piperazin-1-yl)propoxy]-1H-quinolin-2-one] |
| 3.3 | 87.2 | 0.2 | – | O=C1CCc2ccc(OC/C=C/CN3CCN(c4cccc5sccc45)CC3)cc2N1 [Example 15, 7-[4-(4-benzo[b]thiophen-4-yl-piperazin-1-yl)-(E)-2-butenyloxy]-3,4-dihydro-1H-quinolin-2-one] |
| 3 | 92.6 | 0.4 | – | O=C1CCc2ccc(OCCCN3CCN(c4cccc5sccc45)CC3)cc2N1 [Example 10, 7-[3-(4-benzo[b]thiophen-4-yl-piperazin-1-yl)propoxy]-3,4-dihydro-1H-quinolin-2-one] |
